# Laboratory results reported in article PMC9400670, “Establishing the selective phospholipid membrane coordination, permeation and lysis properties for a series of ‘druggable’ supramolecular self-associating antimicrobial amphiphiles” (Chemical Science, 2022).
# Test system: DPH-labelled synthetic vesicles
# Experiment: Synthetic vesicle membrane fluidity assay (DPH fluorescence polarisation)
# Details: increasing SSA concentration; polar phospholipid membranes, excluding PC only; 298 K
# Method: To further explore the effects of SSAs on physical phospholipid membrane characteristics, membrane fluidity experiments were performed. Here a dye (1,6-diphenyl-1,3,5-hexatriene – DPH) was inserted into the synthetic vesicle membrane to enable the study of increased/decreased membrane fluidity through competitive fluorescence polarisation (FP) measurements. In these studies, FP values are found to decrease with increasing membrane fluidity and vice versa. However, these studies could only be performed with SSAs 1–4 and 7 due to overlapping SSA/DHP fluorescence emission.
# Section 2: General Methods […]
# All solvents and starting materials were purchased from known chemical suppliers or available stores and used without any further purification unless specifically stipulated. […] Fluorescence and fluorescence polarisation measurements were conducted using a Clariostar plate reader and analysed using MARS data analysis […]
# Preparation of calcein loaded vesicles: Lipid films were resuspended in buffer A (70 mM calcein, 10 mM TRIS pH 8.5, 0.5 mM EDTA, 110 mM NaCl, pH adjusted to 6-7) and subjected to 9 freeze-thaw cycles in liquid nitrogen and extruded 20 times through a 200 nm polycarbonate membrane. […] The hydrodynamic dimeter of the lipids was monitored using an Anton Paar LitesizerTM 500 to ensure the separation of free and entrapped calcein. […]
structure (smiles),measurement,value
O=C(O)CNC(=O)Nc1ccc(C(F)(F)F)cc1 [SSA 4],overall change in FP (membrane fluidity),> 10%
